pIC50: −log10 of the molar value. Where two headings read alike, the source gives them in different places.
Columns and labels:
CDK1/Cyclin B = molecular target: T1, CDK1/Cyclin B (Homo sapiens, UniProt P06493); assay: Enzymatic assay for CDK1 (FRET based LANCE Ultra kinase assay); assay type: biochemical
T1 construct: purchased Invitrogen PR4768C
Procedure, shortened: (§1)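 TR-FRET (LANCE Ultra) kinase assay at ATP Km, ULight-MBP peptide substrate (68 nM), 8-dose 4-fold compound series in DMSO. Enzymes: […]; 60 min at 23° C., stopped with EDTA plus Eu-anti-phospho-MBP antibody, read 665/615 nm after 60 min.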

CDK7/Cyclin H/MNAT1 = molecular target: T2, CDK7/Cyclin H/MNAT1 (Homo sapiens, UniProt P50613); assay: Enzymatic assay for CDK7 (FRET based LANCE Ultra kinase assay); assay type: biochemical
T2 construct: purchased Invitrogen PR6749B
Procedure, shortened: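 LANCE Ultra TR-FRET kinase assay using a ULight-labeled peptide substrate and a Eu-labeled anti-phospho antibody, with ATP at its Km. Purified CDK/cyclin complex was added to compound after brief centrifugation.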

CDK5/p25 = molecular target: T3, CDK5/p25 (Homo sapiens, UniProt Q00535); assay: Enzymatic assay for CDK5 (FRET based LANCE Ultra kinase assay); assay type: biochemical
T3 construct: purchased Invitrogen PR8543B
Procedure, shortened: as §1

A2780 = assay: Cellular A2780 viability assay (CellTiter-Glo, 72 hours); assay type: cell-based; conditions: Homo sapiens
From the text: Human T-cell acute lymphoblastic leukemia cell line, MOLT-4 (ATCC, Cat #CRL-1582), Human multiple myeloma cell line, RPMI-8226 (Invitrogen, Cat #22400-089) and MM.1S (ATCC, Cat #CRL-2974), NSCLC (Non-small cell lung cancer) cell line H460 (ATCC, Cat #HTB-177), Human colon colorectal carcinoma cell line HCT116 (ATCC, Cat #CCL-247), Human acute monocytic leukemia cell line MV4-11 (ATCC, Cat #CRL-9591), OVCAR-3 (ATCC, Cat #HTB-161) and A2780 (ECACC, Cat #93112519) were obtained from ATCC. Cells were grown in RPMI-1640 media (Invitrogen, Cat #22400-089) supplemented with 10% FBS (Invitrogen, Cat #10099141) and 1% penicillin/streptomycin (Invitrogen, Cat #15070063) and cultured at 37° C., 5% CO2 in a humidified chamber. All cell lines were routinely tested for mycoplasma.
The effect of the CDK7 inhibitor to inhibit the growth of target cancer cells was evaluated through the 72 hours time period of viability assay. Briefly, the candidate cell line ware plated in 96 well plate at the following density of cells respectively. 1×10^4 cells/well for MOLT-4, RPMI-8226, MV4-11 and MM.1S, 5×10^3 for H460, HCT116 and OVCAR-3 and IX 10^3 for A2780. After 24 hours, the cells were treated with various concentrations of the compound (ranging from 0.0015 uM to 10 uM). DMSO solvent without compound served as a control and final DMSO concentration less than 0.1%. After 72 hours of incubation at 37° C., 5% CO2 incubator, cells were analyzed for the viability using the CellTiter-Glo Luminescent Cell Viability Assay (Promega, Cat #G7570). All viability assays were performed in duplicate and Luminescence was read using an Envision (Perkin Elmer, USA). Data was analyzed using XLfit software.

H460 = assay: Cellular H460 viability assay (CellTiter-Glo, 72 hours); assay type: cell-based; conditions: Homo sapiens, NCI-H460
Procedure, shortened: (§2)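 Cells plated in 96 wells and exposed to compound 72 h at 37 °C, 5% CO2, final DMSO below 0.1%, DMSO control. Viability by CellTiter-Glo luminescence, duplicate.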

MV4-11 = assay: Cellular MV4-11 viability assay (CellTiter-Glo, 72 hours); assay type: cell-based; conditions: Homo sapiens
Procedure, shortened: as §2

CDK2/Cyclin A = molecular target: T4, CDK2/Cyclin A (Homo sapiens, UniProt P24941); assay: Enzymatic assay for CDK2 (FRET based LANCE Ultra kinase assay); assay type: biochemical
T4 construct: purchased Invitrogen PV6290
Procedure, shortened: as §1

[1] = read-out: CDK1 enzymatic activity (IC50 activity range)
[2] = read-out: CDK7 enzymatic activity (IC50 activity range)
[3] = read-out: CDK5 enzymatic activity (IC50 activity range)
[4] = read-out: CDK2 enzymatic activity (IC50 activity range)

T2 sequence (P50613 whole entry): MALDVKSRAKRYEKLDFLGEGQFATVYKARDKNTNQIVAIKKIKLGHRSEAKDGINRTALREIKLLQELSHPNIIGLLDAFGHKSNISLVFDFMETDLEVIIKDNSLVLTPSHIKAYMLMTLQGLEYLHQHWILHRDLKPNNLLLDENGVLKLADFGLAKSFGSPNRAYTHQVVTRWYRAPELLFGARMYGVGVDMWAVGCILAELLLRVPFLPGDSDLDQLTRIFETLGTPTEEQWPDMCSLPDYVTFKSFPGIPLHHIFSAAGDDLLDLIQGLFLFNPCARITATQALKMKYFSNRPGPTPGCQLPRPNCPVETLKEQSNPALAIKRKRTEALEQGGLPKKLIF
T2 sequence (P51946 whole entry partner): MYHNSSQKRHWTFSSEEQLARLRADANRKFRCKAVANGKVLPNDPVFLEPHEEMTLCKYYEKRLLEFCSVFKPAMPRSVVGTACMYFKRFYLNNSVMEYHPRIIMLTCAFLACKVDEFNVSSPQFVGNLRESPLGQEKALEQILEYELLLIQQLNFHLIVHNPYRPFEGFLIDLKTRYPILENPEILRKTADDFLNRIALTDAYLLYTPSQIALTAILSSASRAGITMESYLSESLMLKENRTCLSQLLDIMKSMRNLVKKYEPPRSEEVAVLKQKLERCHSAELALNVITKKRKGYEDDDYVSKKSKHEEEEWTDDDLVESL
T2 sequence (P51948 whole entry partner): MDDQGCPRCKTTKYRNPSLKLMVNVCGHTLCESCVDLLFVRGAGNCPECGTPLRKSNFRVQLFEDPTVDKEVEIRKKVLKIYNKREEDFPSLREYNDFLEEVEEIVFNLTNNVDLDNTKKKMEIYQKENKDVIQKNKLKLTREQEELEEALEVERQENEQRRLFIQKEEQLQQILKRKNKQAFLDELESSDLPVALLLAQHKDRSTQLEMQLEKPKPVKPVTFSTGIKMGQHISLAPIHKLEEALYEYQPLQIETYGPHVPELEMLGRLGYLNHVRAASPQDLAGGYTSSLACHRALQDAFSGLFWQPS
T1 sequence (P06493 whole entry): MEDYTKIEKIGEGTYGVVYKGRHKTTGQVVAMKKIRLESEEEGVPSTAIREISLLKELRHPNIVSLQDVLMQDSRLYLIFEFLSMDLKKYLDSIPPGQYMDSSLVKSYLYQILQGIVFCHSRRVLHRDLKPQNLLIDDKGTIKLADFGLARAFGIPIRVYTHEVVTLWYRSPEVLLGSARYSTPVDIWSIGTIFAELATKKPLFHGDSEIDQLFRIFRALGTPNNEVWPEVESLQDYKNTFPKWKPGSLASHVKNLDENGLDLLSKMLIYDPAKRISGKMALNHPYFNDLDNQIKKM
T1 sequence (P14635 whole entry partner): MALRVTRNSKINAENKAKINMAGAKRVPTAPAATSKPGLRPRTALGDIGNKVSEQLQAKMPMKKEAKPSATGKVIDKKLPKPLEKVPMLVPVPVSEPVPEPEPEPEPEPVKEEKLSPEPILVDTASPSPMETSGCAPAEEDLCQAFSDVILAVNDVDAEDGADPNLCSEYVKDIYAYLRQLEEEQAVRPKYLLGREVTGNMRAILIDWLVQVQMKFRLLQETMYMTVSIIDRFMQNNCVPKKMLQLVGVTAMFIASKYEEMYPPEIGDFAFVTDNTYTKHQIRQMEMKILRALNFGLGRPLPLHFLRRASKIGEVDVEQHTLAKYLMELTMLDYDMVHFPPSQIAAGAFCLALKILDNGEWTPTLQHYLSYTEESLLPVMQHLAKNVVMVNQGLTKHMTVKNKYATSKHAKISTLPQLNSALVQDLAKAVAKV
T3 sequence (Q00535 whole entry): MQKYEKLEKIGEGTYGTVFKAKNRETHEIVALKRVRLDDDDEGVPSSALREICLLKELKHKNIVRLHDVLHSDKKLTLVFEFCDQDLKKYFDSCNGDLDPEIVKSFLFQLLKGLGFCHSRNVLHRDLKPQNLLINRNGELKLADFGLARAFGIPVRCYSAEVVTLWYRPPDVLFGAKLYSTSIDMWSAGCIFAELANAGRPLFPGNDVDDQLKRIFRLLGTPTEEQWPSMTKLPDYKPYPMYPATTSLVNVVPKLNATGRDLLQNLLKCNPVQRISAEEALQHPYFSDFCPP
T3 sequence (Q15078 99-307 partner limits assumed): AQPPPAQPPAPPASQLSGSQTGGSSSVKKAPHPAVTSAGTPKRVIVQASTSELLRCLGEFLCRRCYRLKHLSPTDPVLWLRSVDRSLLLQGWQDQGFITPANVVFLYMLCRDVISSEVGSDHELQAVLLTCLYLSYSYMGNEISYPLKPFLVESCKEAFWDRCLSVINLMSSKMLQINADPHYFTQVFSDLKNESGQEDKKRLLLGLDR

Row | SMILES | pIC50 (CDK1/Cyclin B; read-out: CDK1 enzymatic activity (IC50 range)) | CDK1/CDK7: Selectivity of CDK7 inhibition over CDK1 inhibition (CDK7/Cyclin H/MNAT1; CDK7 over CDK1) | CDK2/CDK7: Selectivity of CDK7 inhibition over CDK2 inhibition (CDK7/Cyclin H/MNAT1; CDK7 over CDK2) | CDK5/CDK7: Selectivity of CDK7 inhibition over CDK5 inhibition (CDK7/Cyclin H/MNAT1; CDK7 over CDK5) | pIC50 (CDK7/Cyclin H/MNAT1; read-out: CDK7 enzymatic activity (IC50 range)) | pIC50 (CDK5/p25; read-out: CDK5 enzymatic activity (IC50 range)) | pIC50 (A2780) | pIC50 (H460) | pIC50 (MV4-11) | pIC50 (CDK2/Cyclin A; read-out: CDK2 enzymatic activity (IC50 range)) | pIC50 (CDK1/Cyclin B; [1]) | CDK1/CDK7: Selectivity of CDK7 inhibition over CDK1 inhibition (CDK7/Cyclin H/MNAT1; CDK1/CDK7) | CDK2/CDK7: Selectivity of CDK7 inhibition over CDK2 inhibition (CDK7/Cyclin H/MNAT1; CDK2/CDK7) | CDK5/CDK7: Selectivity of CDK7 inhibition over CDK5 inhibition (CDK7/Cyclin H/MNAT1; CDK5/CDK7) | pIC50 (CDK7/Cyclin H/MNAT1; [2]) | pIC50 (CDK5/p25; [3]) | pIC50 (CDK2/Cyclin A; [4])
1 | CC(C)c1cnn2c(NCc3c(Cl)cccc3C#N)nc(N3CCC(N)CC3)nc12 [Compound 242] | < 6.00 | A (A=greater than 200 fold) | B (B=less than 200 fold, but greater than 20 fold) | B (B=less than 200 fold, but greater than 20 fold) | > 7.00 | 6.00 to 7.00 | ≥ 6.00 | > 6.00 | > 6.00 | 6.00 to 7.00 |  |  |  |  |  |  | 
2 | CC(C)c1cnn2c(NCc3c(Cl)cccc3-c3ccc4ccccc4n3)nc(N3CCCC[C@H]3CCO)nc12 [Compound 262] |  |  |  |  |  |  | < 5.00 | < 5.00 | < 5.00 |  | < 6.00 | B (B=less than 200 fold, but greater than 20 fold) | B (B=less than 200 fold, but greater than 20 fold) | B (B=less than 200 fold, but greater than 20 fold) | 6.00 to 7.00 | < 6.00 | < 6.00
3 | CC(C)c1cnn2c(NCc3cccc4ccc(C(C)(C)O)nc34)nc(N3CCC(N)CC3)nc12 [Compound 255] |  |  |  |  |  |  | ≥ 6.00 | > 6.00 | > 6.00 |  | < 6.00 | A (A=greater than 200 fold) | A (A=greater than 200 fold) | B (B=less than 200 fold, but greater than 20 fold) | > 7.00 | 6.00 to 7.00 | < 6.00
4 | CC(C)c1cnn2c(NCc3ccccc3-c3ccc4ccccc4n3)nc(NCC3CCOCC3)nc12 [Compound 267] |  |  |  |  |  |  | 5.00 to 6.00 | 5.00 to 6.00 | < 5.00 |  | < 6.00 | B (B=less than 200 fold, but greater than 20 fold) | B (B=less than 200 fold, but greater than 20 fold) | B (B=less than 200 fold, but greater than 20 fold) | 6.00 to 7.00 | < 6.00 | < 6.00
5 | CC(C)c1cnn2c(NCc3ccccc3-c3ccc4ccccc4n3)nc(O[C@H]3CC[C@H](O)CC3)nc12 [Compound 273] |  |  |  |  |  |  | 5.00 to 6.00 | 5.00 to 6.00 | 5.00 to 6.00 |  | < 6.00 | A (A=greater than 200 fold) | A (A=greater than 200 fold) | A (A=greater than 200 fold) | > 7.00 | < 6.00 | < 6.00
6 | CC(C)c1cnn2c(NCc3c(Cl)cccc3N3CC[C@@H](C(C)(C)O)C3)nc(N3CCC(N)CC3)nc12 [Compound 254] |  |  |  |  |  |  | ≥ 6.00 | > 6.00 | > 6.00 |  | < 6.00 | A (A=greater than 200 fold) | B (B=less than 200 fold, but greater than 20 fold) | B (B=less than 200 fold, but greater than 20 fold) | > 7.00 | 6.00 to 7.00 | < 6.00
7 | CC(C)c1cnn2c(NCc3c(Cl)cccc3-n3ccc(C(C)(C)O)n3)nc(Nc3cccc4[nH]ccc34)nc12 [Compound 276] |  |  |  |  |  |  | 5.00 to 6.00 |  | > 6.00 |  | < 6.00 | B (B=less than 200 fold, but greater than 20 fold) | B (B=less than 200 fold, but greater than 20 fold) | B (B=less than 200 fold, but greater than 20 fold) | < 6.00 | < 6.00 | < 6.00
